Measurements as given in US8420657B2 (Novartis AG, priority 2008, dated 2013).

Tests used:
[1] = molecular target: T1, GST-JAK2(808-1132) (Homo sapiens, UniProt O60674); experiment: JAK2 kinase assay (Caliper mobility shift, LabChip 3000); format: biochemical
T1 construct: GST-JAK2(808-1132); purchased Invitrogen (Carlsbad, USA) #4288
In short: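 Eight-point compound series (final 10–0.003 μM) tested on purchased GST-JAK2 kinase domain (808-1132). Peptide FITC-JAK3tide plus ATP reacted 60 min, 30 °C, then quenched with EDTA; turnover from charge-based separation of substrate and product.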

[2] = test system: JAK2-dependent nuclear translocation of STAT5-GFP in U-2 OS osteosarcoma cells; experiment: STAT5 nuclear translocation assay (Cellomics), rhEpo stimulated U-2 OS STAT5-GFP cells; format: cell-based; conditions: Homo sapiens, U2OS; STAT5 translocation pathway
In short: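 U-2 OS cells stably expressing STAT5a-GFP and EpoR pre-treated with compound (final 10 μM to 0.003 μM, 0.1% DMSO) for 30 min at 37° C., then stimulated 1 h with 5 U/ml rhEpo. Nuclear-cytoplasmic GFP differential quantified by automated imaging (≥1000 cells/well, Hoechst nuclear mask). IC50 from % translocation normalized to untreated and DMSO-stimulated controls.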

T1 sequence (O60674 808-1132): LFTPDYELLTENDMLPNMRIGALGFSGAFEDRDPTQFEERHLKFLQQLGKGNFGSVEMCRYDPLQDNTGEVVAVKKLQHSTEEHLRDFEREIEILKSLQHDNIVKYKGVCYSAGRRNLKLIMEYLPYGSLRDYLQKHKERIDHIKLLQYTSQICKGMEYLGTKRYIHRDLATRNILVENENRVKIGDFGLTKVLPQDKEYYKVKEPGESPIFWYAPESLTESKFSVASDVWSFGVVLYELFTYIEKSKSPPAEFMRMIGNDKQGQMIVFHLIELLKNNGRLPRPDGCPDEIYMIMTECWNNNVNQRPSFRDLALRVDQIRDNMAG

Work on `CN1CCN(Cc2cc(Nc3ncc4ccn(-c5cc(F)c(CN6CCOCC6)c(F)c5)c4n3)ccn2)CC1=O` [Example 397, 4-{4-[7-(3,5-Difluoro-4-morpholin-4-ylmethyl-phenyl)-7H-pyrrolo[2,3-d]pyrimidin-2-ylamino]-pyridin-2-ylmethyl}-1-methyl-piperazin-2-one] yielded an IC50 [1] of no more than 3 nM and an IC50 [2] of 13 nM.

`Cc1ccc(Nc2ncc3ccn(-c4cc(F)c(CN5CCOCC5)c(F)c4)c3n2)cc1Cn1cccn1` [Example 413, [7-(3,5-Difluoro-4-morpholin-4-ylmethyl-phenyl)-7H-pyrrolo[2,3-d]pyrimidin-2-yl]-(4-methyl-3-pyrazol-1-ylmethyl-phenyl)-amine] gave an IC50 [1] of no more than 3 nM and an IC50 [2] of 28.5 nM.

For `CN1CCN(C(=O)c2cc(Nc3ncc4ccn(-c5cc(F)c(CN6CCOCC6)c(F)c5)c4n3)ccn2)CC1` [Example 361, {4-[7-(3,5-Difluoro-4-morpholin-4-ylmethyl-phenyl)-7H-pyrrolo[2,3-d]pyrimidin-2-ylamino]-pyridin-2-yl}-(4-methyl-piperazin-1-yl)-methanone], the IC50 [1] was 23 nM and the IC50 [2] was 260 nM.

`Fc1cc(-n2ccc3cnc(Nc4ccc(N5CCNC(C(F)(F)F)C5)nc4)nc32)cc(F)c1CN1CCOCC1` (racemic) [Example 469, [7-(3,5-Difluoro-4-morpholin-4-ylmethyl-phenyl)-7H-pyrrolo[2,3-d]pyrimidin-2-yl]-[6-(3-trifluoromethyl-piperazin-1-yl)-pyridin-3-yl]-amine] gave an IC50 [1] of no more than 3 nM and an IC50 [2] of 25 nM.

For `Cc1ccc(Nc2ncc3ccn(-c4cc(F)c(CN5CCOCC5)c(F)c4)c3n2)cc1CN1CCN(CCN(C)C)CC1` [Example 398, [7-(3,5-Difluoro-4-morpholin-4-ylmethyl-phenyl)-7H-pyrrolo[2,3-d]pyrimidin-2-yl]-{3-[4-(2-dimethylamino-ethyl)-piperazin-1-ylmethyl]-4-methyl-phenyl}-amine], the IC50 [1] was no more than 3 nM and the IC50 [2] was 245 nM.

Work on `Fc1cc(-n2ccc3cnc(Nc4ccnc(N5CCNC(C(F)(F)F)C5)c4)nc32)cc(F)c1CN1CCOCC1` (racemic) [Example 364, [7-(3,5-Difluoro-4-morpholin-4-ylmethyl-phenyl)-7H-pyrrolo[2,3-d]pyrimidin-2-yl]-[2-(3-trifluoromethyl-piperazin-1-yl)-pyridin-4-yl]-amine] yielded an IC50 [1] of no more than 3 nM and an IC50 [2] of 2.8 nM.

`COC1CCN(Cc2ccc(Nc3ncc4ccn(-c5cc(F)c(CN6CCOCC6)c(F)c5)c4n3)cc2)C1` (racemic) [Example 506, [7-(3,5-Difluoro-4-morpholin-4-ylmethyl-phenyl)-7H-pyrrolo[2,3-d]pyrimidin-2-yl]-[4-(3-methoxy-pyrrolidin-1-ylmethyl)-phenyl]-amine] gave an IC50 [1] of no more than 3 nM and an IC50 [2] of 38 nM.

For `Fc1cc(-n2ccc3cnc(Nc4ccc5c(c4)NCC5)nc32)cc(F)c1CN1CCOCC1` [Example 431, [7-(3,5-Difluoro-4-morpholin-4-ylmethyl-phenyl)-7H-pyrrolo[2,3-d]pyrimidin-2-yl]-(2,3-dihydro-1H-indol-6-yl)-amine], the IC50 [1] was 3.2 nM and the IC50 [2] was 23.5 nM.

With `C[C@@H]1CN(c2ccc(Nc3ncc4ccn(-c5ccc(C(=O)N6CCOCC6)c(F)c5)c4n3)cn2)C[C@H](C)N1` [Example 499, (4-{2-[6-(cis-3,5-Dimethyl-piperazin-1-yl)-pyridin-3-ylamino]-pyrrolo[2,3-d]pyrimidin-7-yl}-2-fluoro-phenyl)-morpholin-4-yl-methanone] the IC50 [1] was 4.8 nM and the IC50 [2] was 220 nM.

Molecule `Cc1cc(Nc2ncc3ccn(-c4cc(F)c(CN5CCOCC5)c(F)c4)c3n2)cnc1N1CCNC(C)(C)C1=O` [Example 493, 1-{5-[7-(3,5-Difluoro-4-morpholin-4-ylmethyl-phenyl)-7H-pyrrolo[2,3-d]pyrimidin-2-ylamino]-3-methyl-pyridin-2-yl}-3,3-dimethyl-piperazin-2-one] has an IC50 [1] of no more than 3 nM and an IC50 [2] of 104 nM.

For `Fc1cc(-n2ccc3cnc(Nc4ccc5c(c4)C4CCC5N4)nc32)cc(F)c1CN1CCOCC1` (centres unmarked) [Example 424, [7-(3,5-Difluoro-4-morpholin-4-ylmethyl-phenyl)-7H-pyrrolo[2,3-d]pyrimidin-2-yl]-(1,2,3 4-tetrahydro-1,4-epiazano-naphthalen-6-yl)-amine], the IC50 [1] was no more than 3 nM and the IC50 [2] was 9 nM.

`CN(C)C1CCN(Cc2cc(Nc3ncc4ccn(-c5cc(F)c(CN6CCOCC6)c(F)c5)c4n3)ccn2)C1` (racemic) [Example 427, [7-(3,5-Difluoro-4-morpholin-4-ylmethyl-phenyl)-7H-pyrrolo[2,3-d]pyrimidin-2-yl]-[2-(3-dimethylamino-pyrrolidin-1-ylmethyl)-pyridin-4-yl]-amine] showed an IC50 [1] of no more than 3 nM and an IC50 [2] of 33.2 nM.

`C[C@@H]1CN(Cc2ccc(Nc3ncc4ccn(-c5cc(F)c(CN6CCOCC6)c(F)c5)c4n3)c(F)c2)C[C@H](C)N1` [Example 477, [7-(3,5-Difluoro-4-morpholin-4-ylmethyl-phenyl)-7H-pyrrolo[2,3-d]pyrimidin-2-yl]-[4-(cis-3,5-dimethyl-piperazin-1-ylmethyl)-2-fluoro-phenyl]-amine] was tested, and the IC50 [1] was 17 nM and the IC50 [2] was 718 nM.

Molecule `Cc1cc(Nc2ncc3ccn(-c4cc(F)c(CN5CCOCC5)c(F)c4)c3n2)cnc1N1C[C@@H](C)N[C@@H](C)C1` [Example 510, [7-(3,5-Difluoro-4-morpholin-4-ylmethyl-phenyl)-7H-pyrrolo[2,3-d]pyrimidin-2-yl]-[6-(cis-3,5-dimethyl-piperazin-1-yl)-5-methyl-pyridin-3-yl]-amine] has an IC50 [1] of no more than 3 nM and an IC50 [2] of 1 nM.

In the case of `Fc1cc(-n2ccc3cnc(Nc4ccc([C@H]5COCCN5)cc4)nc32)cc(F)c1CN1CCOCC1` [Example 511, [7-(3,5-Difluoro-4-morpholin-4-ylmethyl-phenyl)-7H-pyrrolo[2,3-d]pyrimidin-2-yl]-((S)-4-morpholin-3-yl-phenyl)-amine], the IC50 [1] is reported as no more than 3 nM and the IC50 [2] is reported as 3.9 nM.

`Cc1ccc(Nc2ncc3ccn(-c4cc(F)c(CN5CCOCC5)c(F)c4)c3n2)cc1CN1CCC(N(C)C)C1` (racemic) [Example 434, [7-(3,5-Difluoro-4-morpholin-4-ylmethyl-phenyl)-7H-pyrrolo[2,3-d]pyrimidin-2-yl]-[3-(3-dimethylamino-pyrrolidin-1-ylmethyl)-4-methyl-phenyl]-amine] showed an IC50 [1] of no more than 3 nM and an IC50 [2] of 31.5 nM.

`Cc1ccc(Nc2ncc3ccn(-c4cc(F)c(CN5CCOCC5)c(F)c4)c3n2)cc1CN1CCNC(C(F)(F)F)C1` (racemic) [Example 404, [7-(3,5-Difluoro-4-morpholin-4-ylmethyl-phenyl)-7H-pyrrolo[2,3-d]pyrimidin-2-yl]-[4-methyl-3-(3-trifluoromethyl-piperazin-1-ylmethyl)-phenyl]-amine] was tested, and the IC50 [1] was 5.6 nM and the IC50 [2] was 141 nM.

For `Fc1cc(-n2ccc3cnc(Nc4ccc(OC5CCOCC5)nc4)nc32)cc(F)c1CN1CCOCC1` [Example 515, [7-(3,5-Difluoro-4-morpholin-4-ylmethyl-phenyl)-7H-pyrrolo[2,3-d]pyrimidin-2-yl]-[6-(tetrahydro-pyran-4-yloxy)-pyridin-3-yl]-amine], the IC50 [1] was no more than 3 nM and the IC50 [2] was 54 nM.

Work on `Fc1cc(-n2ccc3cnc(Nc4ccc(CN5CCOCC5)nc4)nc32)cc(F)c1CN1CCOCC1` [Example 480, [7-(3,5-Difluoro-4-morpholin-4-ylmethyl-phenyl)-7H-pyrrolo[2,3-d]pyrimidin-2-yl]-(6-morpholin-4-ylmethyl-pyridin-3-yl)-amine] yielded an IC50 [1] of no more than 3 nM and an IC50 [2] of 71 nM.
